Results as given in ChEMBL document CHEMBL4342491, “Development of a Versatile and Sensitive Direct Ligand Binding Assay for Human NR5A Nuclear Receptors” (ACS Med Chem Lett, 2020).
pIC50, pKd, pKi: −log10 of the molar value.

Experiments:
[1] = target: T1, Steroidogenic factor 1 (Homo sapiens, UniProt Q13285)
Description: Displacement of 6N-FAM from SF1 LBD (218 to 461 residues) (unknown origin) expressed in Escherichia coli BL21 pLysS by competitive binding based fluorescence polarization assay

[2] = target: Nuclear receptor subfamily 5 group A member 2 (Homo sapiens) (UniProt O00482); assay: Binding affinity to human LRH1 LBD expressed in Escherichia coli BL21 by electrophoretic mobility shift assay
Chain of Nuclear receptor subfamily 5 group A member 2 (Homo sapiens) (O00482 whole entry, the tested form may be a part): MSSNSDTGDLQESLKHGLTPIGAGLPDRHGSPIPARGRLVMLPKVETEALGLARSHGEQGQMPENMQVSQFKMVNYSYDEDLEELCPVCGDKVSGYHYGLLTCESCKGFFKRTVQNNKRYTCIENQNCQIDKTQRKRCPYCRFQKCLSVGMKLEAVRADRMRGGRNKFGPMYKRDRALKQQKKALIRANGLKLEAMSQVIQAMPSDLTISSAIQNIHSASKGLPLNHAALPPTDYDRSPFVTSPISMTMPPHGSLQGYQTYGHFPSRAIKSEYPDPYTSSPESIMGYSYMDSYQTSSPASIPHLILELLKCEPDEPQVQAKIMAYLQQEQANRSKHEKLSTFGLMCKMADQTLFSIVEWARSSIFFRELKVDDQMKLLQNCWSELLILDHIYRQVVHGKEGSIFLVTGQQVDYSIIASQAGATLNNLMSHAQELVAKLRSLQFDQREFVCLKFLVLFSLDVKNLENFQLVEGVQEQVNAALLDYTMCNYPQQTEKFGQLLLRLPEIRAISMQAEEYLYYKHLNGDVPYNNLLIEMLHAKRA

[3] = target: T1, Steroidogenic factor 1; assay: Binding affinity to human SF1 LBD (218 to 461 residues) expressed in Escherichia coli BL21 by electrophoretic mobility shift assay
[4] = target: T1, Steroidogenic factor 1; assay: Binding affinity to SF1 LBD (218 to 461 residues) (unknown origin) expressed in Escherichia coli BL21 pLysS measured after overnight incubation by fluorescence polarization assay
[5] = target: T1, Steroidogenic factor 1; assay: Inhibition of Gal4-fused human SF1 LBD (198 to 462 residues) expressed in CHO-K1 cells; type: cell-based

T1 sequence (Q13285 whole entry, the tested form may be a part): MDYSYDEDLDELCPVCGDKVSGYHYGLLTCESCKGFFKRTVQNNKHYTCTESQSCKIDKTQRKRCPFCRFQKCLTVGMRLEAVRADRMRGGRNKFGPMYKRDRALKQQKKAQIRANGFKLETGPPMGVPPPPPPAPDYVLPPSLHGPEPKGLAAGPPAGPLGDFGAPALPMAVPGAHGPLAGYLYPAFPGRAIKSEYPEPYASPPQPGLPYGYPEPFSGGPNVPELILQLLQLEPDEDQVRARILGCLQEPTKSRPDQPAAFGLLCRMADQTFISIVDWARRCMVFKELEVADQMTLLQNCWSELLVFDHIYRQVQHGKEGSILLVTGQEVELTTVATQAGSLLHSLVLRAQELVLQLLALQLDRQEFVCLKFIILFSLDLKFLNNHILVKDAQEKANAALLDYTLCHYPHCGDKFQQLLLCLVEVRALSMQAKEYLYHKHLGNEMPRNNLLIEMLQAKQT

Row | Structure (SMILES) | pKi [1] | other results
1 | C=C(c1ccccc1)[C@@]12CC[C@H](N)[C@@H]1CC(CCCCCCCCCC(=O)OC)=C2c1ccccc1 | 5.11 | –
2 | CCCC(=O)OC[C@H](COP(=O)(O)O[C@H]1[C@H](O)[C@@H](OP(=O)(O)O)[C@H](OP(=O)(O)O)[C@@H](OP(=O)(O)O)[C@H]1O)OC(=O)CCC | – | Activity [2]: 120 nM
3 | CCCCC/C=C\C/C=C\C/C=C\C/C=C\CCCC(=O)OC(COC(=O)CCCCCCCCCCCCCCCCC)COP(=O)(O)O[C@@H]1[C@H](O)[C@H](O)[C@@H](OP(=O)(O)O)[C@H](OP(=O)(O)O)[C@H]1O (some centres undefined) | 6.38 | Activity [3]: 250 nM
4 | C=C(c1ccccc1)[C@@]12CC[C@H](NS(N)(=O)=O)C1CC(CCCCCC)=C2c1ccccc1 (some centres undefined) | 5.85 | –
5 | CCCCCCCCCCCC(=O)OC[C@H](COP(=O)([O-])OCC[N+](C)(C)C)OC(=O)CCCCCCCCCCC | 6.07 | –
6 | C=C(c1ccccc1)[C@@]12CC[C@H](NS(N)(=O)=O)[C@@H]1CC(CCCCCCCCCC(=O)Nc1ccc3c(c1)C(=O)OC31c3ccc(O)cc3Oc3cc(O)ccc31)=C2c1ccccc1 | – | pKd [4]: 7.91
7 | CCOC(=O)C(C)Oc1cccc2c(=O)n(CC(=O)Nc3ccc4c(c3)OCCO4)ccc12 (centres undefined) | – | pIC50 [5]: 7.52
8 | CCCCNC(=O)c1cc(C(C)(C)C)cc(C(C)(C)C)c1O | 4.46 | –
